Experiments:
panel of 442 kinases [1] = biological target: T1, panel of 442 kinases (Homo sapiens, UniProt Q6ZN16); assay type: binding; details: Compound Concentration 10 µM
T1 construct: purchased KINOMEscan
T1 sequence (Q6ZN16 1-1313): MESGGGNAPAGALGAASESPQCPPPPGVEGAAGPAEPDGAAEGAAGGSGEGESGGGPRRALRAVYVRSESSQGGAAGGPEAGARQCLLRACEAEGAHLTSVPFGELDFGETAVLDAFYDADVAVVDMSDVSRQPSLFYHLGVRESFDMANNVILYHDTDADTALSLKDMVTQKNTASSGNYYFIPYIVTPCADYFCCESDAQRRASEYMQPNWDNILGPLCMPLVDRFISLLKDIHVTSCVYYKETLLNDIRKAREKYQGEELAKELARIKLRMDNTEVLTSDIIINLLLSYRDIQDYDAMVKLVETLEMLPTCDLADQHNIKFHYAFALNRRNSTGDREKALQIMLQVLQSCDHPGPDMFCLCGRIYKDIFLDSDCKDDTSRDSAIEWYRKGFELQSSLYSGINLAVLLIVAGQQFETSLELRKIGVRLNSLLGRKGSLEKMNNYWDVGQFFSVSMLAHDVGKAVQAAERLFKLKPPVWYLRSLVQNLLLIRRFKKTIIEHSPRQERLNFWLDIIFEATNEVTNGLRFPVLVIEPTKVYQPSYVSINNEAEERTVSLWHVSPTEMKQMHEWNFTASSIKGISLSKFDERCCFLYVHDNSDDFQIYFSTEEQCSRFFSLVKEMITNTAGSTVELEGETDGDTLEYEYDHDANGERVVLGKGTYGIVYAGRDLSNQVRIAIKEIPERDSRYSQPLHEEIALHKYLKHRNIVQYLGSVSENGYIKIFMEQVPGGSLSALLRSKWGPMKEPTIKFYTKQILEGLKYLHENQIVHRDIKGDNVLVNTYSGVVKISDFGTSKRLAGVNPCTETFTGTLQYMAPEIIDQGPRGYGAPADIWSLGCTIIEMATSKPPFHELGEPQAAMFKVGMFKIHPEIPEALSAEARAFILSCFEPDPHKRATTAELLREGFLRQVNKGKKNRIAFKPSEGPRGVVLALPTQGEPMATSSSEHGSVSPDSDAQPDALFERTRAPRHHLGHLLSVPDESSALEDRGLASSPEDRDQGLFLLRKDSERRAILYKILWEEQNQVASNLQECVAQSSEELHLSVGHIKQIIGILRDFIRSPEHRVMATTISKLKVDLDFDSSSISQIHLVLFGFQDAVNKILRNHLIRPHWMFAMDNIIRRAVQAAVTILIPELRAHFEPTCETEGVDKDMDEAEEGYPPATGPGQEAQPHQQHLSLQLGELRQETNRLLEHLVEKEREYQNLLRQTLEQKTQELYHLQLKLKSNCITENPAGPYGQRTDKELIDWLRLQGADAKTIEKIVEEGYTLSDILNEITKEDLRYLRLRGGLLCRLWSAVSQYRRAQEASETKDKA
Source text: (§1) We assessed the selectivity of members of this scaffold using the KINOMEscan methodology across a near comprehensive panel of 442 kinases [[18,27]].

panel of 442 kinases [2] = biological target: T2, panel of 442 kinases (Homo sapiens, UniProt P42684); assay type: binding; details: Compound Concentration 10 µM
T2 construct: purchased KINOMEscan
T2 sequence (P42684 whole entry): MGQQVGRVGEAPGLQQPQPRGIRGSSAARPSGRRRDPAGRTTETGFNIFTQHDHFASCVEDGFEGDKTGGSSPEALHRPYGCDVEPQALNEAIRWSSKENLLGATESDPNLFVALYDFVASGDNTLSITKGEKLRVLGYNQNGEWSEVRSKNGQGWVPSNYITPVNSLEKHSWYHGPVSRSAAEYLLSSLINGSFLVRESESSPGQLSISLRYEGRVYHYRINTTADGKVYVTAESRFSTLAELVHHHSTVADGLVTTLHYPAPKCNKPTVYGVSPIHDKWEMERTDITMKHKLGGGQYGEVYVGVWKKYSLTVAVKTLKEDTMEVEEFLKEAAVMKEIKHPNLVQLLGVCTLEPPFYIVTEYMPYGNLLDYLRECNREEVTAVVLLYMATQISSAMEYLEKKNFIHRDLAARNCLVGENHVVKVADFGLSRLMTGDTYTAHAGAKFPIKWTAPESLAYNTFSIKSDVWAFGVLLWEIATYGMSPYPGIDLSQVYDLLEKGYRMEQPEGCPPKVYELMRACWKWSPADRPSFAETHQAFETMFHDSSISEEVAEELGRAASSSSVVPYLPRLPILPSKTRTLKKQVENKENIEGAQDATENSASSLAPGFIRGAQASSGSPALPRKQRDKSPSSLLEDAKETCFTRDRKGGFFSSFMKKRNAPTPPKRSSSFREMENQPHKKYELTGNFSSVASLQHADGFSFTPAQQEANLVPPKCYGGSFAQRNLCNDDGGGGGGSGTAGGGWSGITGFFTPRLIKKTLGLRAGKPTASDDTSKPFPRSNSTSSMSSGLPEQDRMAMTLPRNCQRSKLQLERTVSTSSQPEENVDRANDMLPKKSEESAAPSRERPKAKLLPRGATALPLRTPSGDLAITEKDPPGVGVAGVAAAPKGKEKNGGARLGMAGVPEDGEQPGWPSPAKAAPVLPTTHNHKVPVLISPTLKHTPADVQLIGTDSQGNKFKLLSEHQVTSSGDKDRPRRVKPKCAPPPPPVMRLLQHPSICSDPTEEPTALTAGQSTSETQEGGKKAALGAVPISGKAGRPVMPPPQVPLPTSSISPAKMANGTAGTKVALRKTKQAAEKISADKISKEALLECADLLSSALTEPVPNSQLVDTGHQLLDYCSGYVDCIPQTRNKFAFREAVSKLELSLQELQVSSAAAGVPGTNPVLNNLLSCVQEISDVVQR
Source text: as §1

For `COc1cc(C(=O)N2CCC(N3CCN(C)CC3)CC2)ccc1Nc1ncc2c(n1)N(C)c1ccccc1C(=O)N2C` [15 (LRRK2-IN-1)], the “KINOMEscan: MAP3K15” value (panel of 442 kinases [1]) was 69 and the “KINOMEscan: ABL2” value (panel of 442 kinases [2]) was 97.

With `COc1cc(C(=O)N2CCC(N3CCN(C)CC3)CC2)ccc1Nc1ncc2c(n1)N1CCc3cccc(c31)C(=O)N2C` [Compound 24] the “KINOMEscan: MAP3K15” value (panel of 442 kinases [1]) was 77.

For `COc1cc(C(=O)N2CCC(N3CCN(C)CC3)CC2)ccc1Nc1ncc2c(n1)N(C1CCCC1)c1ccccc1C(=O)N2C` [Compound 25, 11-cyclopentyl-2-((2-methoxy-4-(4-(4-methylpiperazin-1-yl)piperidine-1-carbonyl)phenyl)amino)-5-methyl-5H-benzo[e]pyrimido[5,4-b][1,4]diazepin-6(11H)-one], the “KINOMEscan: MAP3K15” value (panel of 442 kinases [1]) was 88 and the “KINOMEscan: ABL2” value (panel of 442 kinases [2]) was 100.

For `CCOc1cc(C(=O)N2CCC(N3CCN(C)CC3)CC2)ccc1Nc1ncc2c(n1)N(C1CCCC1)c1ccccc1C(=O)N2C` [Compound 26], the “KINOMEscan: MAP3K15” value (panel of 442 kinases [1]) was 95 and the “KINOMEscan: ABL2” value (panel of 442 kinases [2]) was 100.
